# Test results: patent US20070082880A1 (priority 2005, published 2007)
# Legend:
# PKCθ = PKCθ (Homo sapiens, UniProt Q04759); assay: PKCθ Scintiplate Assay; type: biochemical; settings: average value when one or more samples were tested
# Experimental: This assay detects the phosphorylation of a biotinylated substrate by kinase utilizing radiolabeled ATP (ATP γ P33). The enzyme is either recombinant full length PKCθ (Panvera, P2996) or the purified recombinant active kinase domain of full length PKCθ (amino acids 362-706). The substrate in this assay is a biotinylated peptide with a sequence of biotin-[…]-CONH2. The assay buffer is composed of 100 mM Hepes, pH7.5, 2 mM MgCl2, 20 mM β-glycerophosphate and 0.008% TritonX 100. A reaction mixture of ATP, ATP γ P33 (PerkinElmer), DTT, lipid activator, and the enzyme is prepared in the assay buffer and added to a 96 well polypropylene plate. The compound (diluted in DMSO in a separate 96-well polypropylene plate) is added to the reaction mixture and incubated at room temperature. Following the incubation, the peptide substrate is added to the reaction mixture to initiate the enzymatic reaction. The reaction is terminated with the addition of a stop solution (10 mM EDTA, 0.2% TritonX100, and 100 mM NaHPO4) and transferred from the assay plate to a washed streptavidin-coated 96 well scintiplate (PerkinElmer). The scintiplate is incubated at room temperature, washed in PBS with 0.1% TritonX 100, and counted in the 1450 Microbeta Trilux (Wallac, Version 2.60). Counts are recorded for each well as corrected counts per minute (CCPM). The counts are considered corrected because they are adjusted according to a P33 normalization protocol, which corrects for efficiency and background differences between the instrument detectors (software version 4.40.01).
# [1] = target: T1, human PKCθ full length enzyme (Homo sapiens, UniProt Q04759); assay: PKCθ IMAP Assay; type: biochemical; settings: average value when one or more samples were tested; ATP 6 uM, PKCθ 1 nM
# T1 construct: human PKCθ full length enzyme (Panvera Catalog No. P2996); purchased Panvera P2996
# In short: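 IMAP fluorescence polarization after 20 min with binding beads measured phosphorylation of 100 nM 5FAM-peptide. Reactions held 1 nM full-length human PKCθ, 6 uM ATP, 5% DMSO and DTT-containing buffer, 25 min at room temperature. Compounds tested as 2:1 serial dilutions; controls lacked ATP or enzyme.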
# T1 sequence (Q04759 whole entry): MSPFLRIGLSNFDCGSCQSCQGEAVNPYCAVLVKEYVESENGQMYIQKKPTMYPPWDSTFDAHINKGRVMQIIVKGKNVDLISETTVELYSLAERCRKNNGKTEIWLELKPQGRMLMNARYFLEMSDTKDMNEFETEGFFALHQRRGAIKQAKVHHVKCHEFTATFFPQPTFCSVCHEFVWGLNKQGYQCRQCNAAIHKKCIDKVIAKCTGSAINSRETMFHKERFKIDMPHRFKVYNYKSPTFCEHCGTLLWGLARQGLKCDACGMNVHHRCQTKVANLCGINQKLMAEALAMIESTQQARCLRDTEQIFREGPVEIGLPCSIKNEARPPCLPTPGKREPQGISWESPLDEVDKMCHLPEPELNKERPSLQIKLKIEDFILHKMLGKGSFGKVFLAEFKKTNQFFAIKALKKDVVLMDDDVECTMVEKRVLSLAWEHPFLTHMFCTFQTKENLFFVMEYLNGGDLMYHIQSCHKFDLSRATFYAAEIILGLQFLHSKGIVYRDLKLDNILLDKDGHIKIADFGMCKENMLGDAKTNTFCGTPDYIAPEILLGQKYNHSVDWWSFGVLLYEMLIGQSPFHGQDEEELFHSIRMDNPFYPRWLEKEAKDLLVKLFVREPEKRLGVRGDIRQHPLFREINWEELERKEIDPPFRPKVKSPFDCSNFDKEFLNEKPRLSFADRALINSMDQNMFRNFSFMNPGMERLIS
# PKCθ, sequence (Q04759 362-706 limits assumed): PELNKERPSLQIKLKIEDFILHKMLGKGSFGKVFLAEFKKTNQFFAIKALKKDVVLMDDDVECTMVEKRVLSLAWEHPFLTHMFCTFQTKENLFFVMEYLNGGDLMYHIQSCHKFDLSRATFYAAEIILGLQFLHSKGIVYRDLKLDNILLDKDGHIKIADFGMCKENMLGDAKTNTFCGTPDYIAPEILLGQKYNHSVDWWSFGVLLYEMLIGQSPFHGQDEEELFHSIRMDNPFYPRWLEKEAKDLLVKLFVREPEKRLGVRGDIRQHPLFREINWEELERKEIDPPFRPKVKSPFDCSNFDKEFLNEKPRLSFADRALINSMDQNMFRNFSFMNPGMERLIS
Compound,IC50 (PKCθ) [nM],IC50 [1] [nM],melting point [°C]
"N#Cc1cnc2sc(-c3ccc(CN4CCOCC4)cc3)cc2c1Nc1ccc2[nH]ccc2c1 [Compound 101, 4-(1H-indol-5-ylamino)-2-[(4-morpholin-4-ylmethyl)phenyl]thieno[2,3-b]pyridine-5-carbonitrile]",370,400,251 to 253
"N#Cc1cnc2sc(-c3ccccc3)cc2c1Nc1ccc2[nH]ccc2c1 [Compound 107, 4-(1H-indol-5-ylamino)-2-phenylthieno[2,3-b]pyridine-5-carbonitrile]",79,460,> 245
"N#Cc1cnc2sc(-c3ccccc3)cc2c1Nc1cccc2[nH]ccc12 [Compound 115, 4-(1H-indol-4-ylamino)-2-phenylthieno[2,3-b] pyridine-5-carbonitrile]",120,,> 245
"N#Cc1cnc2sc(-c3ccccc3)cc2c1NCCc1c[nH]cn1 [Compound 127, 4-{[2-(1H-imidazol-4-yl)ethyl]amino}-2-phenylthieno[2,3-b]pyridine-5-carbonitrile]",3000,,> 245
"CN1CCN(Cc2cccc(-c3cc4c(Nc5cccc6[nH]ccc56)c(C#N)cnc4s3)c2)CC1 [Compound 140, 4-(1H-indol-4-ylamino)-2-{3-[(4-methylpiperazin-1-yl)methyl]phenyl}thieno[2,3-b]pyridine-5-carbonitrile]",34,22,> 245
"CN1CCN(Cc2ccccc2-c2cc3c(Nc4ccc5[nH]ccc5c4)c(C#N)cnc3s2)CC1 [Compound 185, 4-(1H-indol-5-ylamino)-2-{2-[(4-methylpiperazin-1-yl)methyl]phenyl} thieno[2,3-b]pyridine-5-carbonitrile]",530,,226 to 228
"N#Cc1cnc2sc(-c3ccc(CN)cc3)cc2c1Nc1ccc2[nH]ccc2c1 [Compound 188, 2-[4-(aminomethyl)phenyl]-4-(1H-indol-5-ylamino)thieno[2,3-b]pyridine-5-carbonitrile]",27,34,> 260
"CN1CCN(Cc2ccc(-c3cc4c(Nc5ccc6[nH]ccc6c5)c(C#N)cnc4s3)nc2)CC1 [Compound 203, 4-(1H-indol-5-ylamino)-2-{5-[(4-methylpiperazin-1-yl)methyl]pyridine-2-yl}thieno[2,3-b]pyridine-5-carbonitrile]",110,,> 245
"CN(C)Cc1nc(-c2cc3c(Nc4ccc5[nH]ccc5c4)c(C#N)cnc3s2)cs1 [Compound 208, 2-{2-[(dimethylamino)methyl]-1,3-thiazol-4-yl}-4-(1H-indol-5-ylamino)thieno[2,3-b]pyridine-5-carbonitrile]",50,100,
"N#Cc1cnc2sc(C#Cc3ccccn3)cc2c1Nc1ccc2[nH]ccc2c1 [Compound 213, 4-(1H-indol-5-ylamino)-2-(pyridine-2-ylethynyl)thieno[2,3-b]pyridine-5-carbonitrile]",75,290,
"N#Cc1cnc2sc(C#Cc3cccnc3)cc2c1Nc1ccc2[nH]ccc2c1 [Compound 214, 4-(1H-indol-5-ylamino)-2-(pyridin-3-ylethynyl)thieno[2,3-b]pyridine-5-carbonitrile]",16,190,
"CN1CCN(Cc2cccc(C#Cc3cc4c(Nc5ccc6[nH]ccc6c5)c(C#N)cnc4s3)n2)CC1 [Compound 216, 4-(1H-indol-5-ylamino)-2-({6-[(4-methylpiperazin-1-yl)methyl]pyridin-2-yl}ethynyl)thieno[2,3-b]pyridine-5-carbonitrile]",90,320,
"N#Cc1cnc2sc(C#Cc3cccnc3)cc2c1Nc1cccc2[nH]ccc12 [Compound 218, 4-(1H-indol-4-ylamino)-2-(pyridin-3-ylethynyl)thieno[2,3-b]pyridine-5-carbonitrile]",34,52,
"CN1CCN(CCC#Cc2csc3ncc(C#N)c(Nc4ccc5[nH]ccc5c4)c23)CC1 [Compound 244, 4-(1H-indol-5-ylamino)-3-[4-(4-methylpiperazin-1-yl)but-1-yn-1-yl]thieno[2,3-b]pyridine-5-carbonitrile]",560,570,184 to 186

# Now from value to compound:
IC50 (PKCθ) [nM],IC50 [1] [nM],melting point [°C],Compound
51,,> 260,"N#Cc1cnc2sc(-c3ccc(C=O)cc3)cc2c1Nc1ccc2[nH]ccc2c1 [Compound 103, 2-(4-formylphenyl)-4-(1H-indol-5-ylamino)thieno[2,3-b]pyridine-5-carbonitrile]"
> 150000,,> 245,"N#Cc1cnc2sc(-c3ccccc3)cc2c1Nc1cccc2cc[nH]c12 [Compound 109, 4-(1H-indol-7-ylamino)-2-phenylthieno[2,3-b]pyridine-5-carbonitrile]"
> 300000,,> 245,"N#Cc1cnc2sc(-c3ccccc3)cc2c1-c1ccc2[nH]ccc2c1 [Compound 131, 4-(1H-indol-5-yl)-2-phenylthieno[2,3-b]pyridine-5-carbonitrile]"
82,52,> 245,"CN1CCN(Cc2ccc(-c3cc4c(Nc5cccc6[nH]ccc56)c(C#N)cnc4s3)cc2)CC1 [Compound 137, 4-(1H-indol-4-ylamino)-2-{4-[(4-methylpiperazin-1-yl)methyl]phenyl}thieno[2,3-b]pyridine-5-carbonitrile]"
170,150,,"CN(C)C(=O)c1cccc(-c2cc3c(Nc4ccc5[nH]ccc5c4)c(C#N)cnc3s2)n1 [Compound 209, 6-[5-cyano-4-(1H-indol-5-ylamino)thieno[2,3-b]pyridin-2-yl]-N,N-dimethylpyridine-2-carboxamide]"
34,82,,"CN(C)Cc1ccc(-c2cc3c(Nc4ccc5[nH]ccc5c4)c(C#N)cnc3s2)s1 [Compound 211, 2-{5-[(dimethylamino)methyl]-2-thienyl}-4-(1H-indol-5-ylamino)thieno[2,3-b]pyridine-5-carbonitrile]"
59,69,,"CN(C)Cc1cccc(C#Cc2cc3c(Nc4ccc5[nH]ccc5c4)c(C#N)cnc3s2)n1 [Compound 217, 2-({6-[(dimethylamino)methyl]pyridin-2-yl}ethynyl)-4-(1H-indol-5-ylamino)thieno[2,3-b]pyridine-5-carbonitrile]"
170,150,,"CN1CCN(CCC#Cc2cc3c(Nc4cccc5[nH]ccc45)c(C#N)cnc3s2)CC1 [Compound 222, 4-(1H-indol-4-ylamino)-2-[4-(4-methylpiperazin-1-yl)but-1-yn-1-yl]thieno[2,3-b]pyridine-5-carbonitrile]"
88,1400,,"CN(C)CC#Cc1cc2c(Nc3ccc4[nH]ccc4c3)c(C#N)cnc2s1 [Compound 223, 2-[3-(dimethylamino)prop-1-yn-1-yl]-4-(1H-indol-5-ylamino)thieno[2,3-b]pyridine-5-carbonitrile]"
220,440,,"CCN(CC)CC#Cc1cc2c(Nc3ccc4[nH]ccc4c3)c(C#N)cnc2s1 [Compound 225, 2-[3-(diethylamino)prop-1-yn-1-yl]-4-(1H-indol-5-ylamino)thieno[2,3-b]pyridine-5-carbonitrile]"
76,570,,"N#Cc1cnc2sc(C#Cc3ccncc3)cc2c1Nc1ccc2[nH]ccc2c1 [Compound 226, 4-(1H-indol-5-ylamino)-2-(pyridin-4-ylethynyl)thieno[2,3-b]pyridine-5-carbonitrile]"
150,290,,"N#Cc1cnc2sc(C#Cc3cn[nH]c3)cc2c1Nc1ccc2[nH]ccc2c1 [Compound 227, 4-(1H-indol-5-ylamino)-2-(1H-pyrazol-4-ylethynyl)thieno[2,3-b]pyridine-5-carbonitrile]"
